US20160101148A1, “TREATMENT AND PREVENTION OF BACTERIAL SKIN INFECTIONS USING ORITAVANCIN” (priority 2013, published 2016)

How the values were obtained:
[1] = Predicted free peak and free trough levels in plasma; format: in vivo; details: non-protein bound drug, representative human dose: oritavancin 1200 mg, vancomycin 1000 mg, daptomycin 4 mg/kg, linezolid 500 mg
Protocol: ORI concentrations were chosen to approximate free peak (fCmax; defined as the peak concentration of non-protein bound drug) and free trough (fCmin; defined for ORI as the concentration of non-protein bound drug at 24 h) levels in plasma following administration of a 1200 mg dose (Belley et al., 2013 Table 10). ORI protein binding is estimated at approximately 85% in serum from nonclinical species and humans (Arhin et al., 2010). Doubling dilution concentrations of comparator agents were likewise chosen to approximate their fCmax and fCmin levels in plasma when administered at approved dosages for complicated skin and skin structure infections, using pharmacokinetic data and protein binding values from their respective package inserts (DAP [Cubicin®]; LZD [Zyvox®]; VAN [Vancocin®]; Table 3).

[2] = cited from earlier work
[3] = tested on: S. aureus strains (14 mecC MRSA, 2 mecA MRSA, ATCC 29213 MSSA); experiment: In vitro time-kill assays at free peak and free trough concentrations; format: cell-based, Staphylococcus aureus
Protocol: Viable cell count was determined by serial dilution plating, including the use of 25 g/L charcoal suspension to limit antibiotic carryover. […] Time-kill assays were repeated at least twice independently; results presented are from a representative experiment.
Doubling dilution concentrations of comparator agents were likewise chosen to approximate their fCmax and fCmin levels in plasma when administered at approved dosages for complicated skin and skin structure infections, using pharmacokinetic data and protein binding values from their respective package inserts (DAP [Cubicin®]; LZD [Zyvox®]; VAN [Vancocin®]; Table 3).

[4] = tested on: ABSSSI caused by susceptible gram-positive bacteria, including MRSA; experiment: SOLO II Phase 3 trial, efficacy; format: in vivo, human
Description: Complete results were obtained from a phase 3 clinical trial program of oritavancin (SOLO), which investigated the drug for the treatment of acute bacterial skin and skin structure infections (ABSSSI) caused by susceptible gram-positive bacteria, including methicillin-resistant Staphylococcus aureus (MRSA). SOLO I and SOLO II clinical trials were identical multicenter, double-blind, randomized clinical trials.
In SOLO II, all protocol-specified primary and secondary efficacy endpoints were met. […] The efficacy was similar in the overall population and in those patients with microbiologically confirmed MRSA infections.

[5] = confirmed MRSA, Microbiological ITT, ECE
[6] = confirmed MRSA, Microbiological ITT, ECE, oritavancin n = 100, vancomycin n = 101
[7] = mITT, ECE, oritavancin n = 503, vancomycin n = 502
[8] = mITT, ECE, oritavancin vs vancomycin

In the case of CN[C@H](CC(C)C)C(=O)N[C@H]1C(=O)N[C@@H](CC(N)=O)C(=O)N[C@H]2C(=O)N[C@H]3C(=O)N[C@H](C(=O)N[C@H](C(=O)O)c4cc(O)cc(O)c4-c4cc3ccc4O)[C@H](O[C@H]3C[C@](C)(N)[C@@H](O)[C@H](C)O3)c3ccc(c(Cl)c3)Oc3cc2cc(c3O[C@@H]2O[C@H](CO)[C@@H](O)[C@H](O)[C@H]2O[C@H]2C[C@](C)(NCc3ccc(-c4ccc(Cl)cc4)cc3)[C@@H](O)[C@H](C)O2)Oc2ccc(cc2Cl)[C@H]1O [Oritavancin, N^DISACC-(4-(4-chlorophenyl)benzyl)A82846B], the “Doubling Dilution Concentration Representing Predicted fCmax” value [1] is listed as 16 mg/L, the “Free Fraction” value ([2]; protein binding values from Arhin et al., 2010 (oritavancin) and package inserts (comparators)) is listed as 0.15 and the Protein binding ([2]; serum from nonclinical species and humans (Arhin et al., 2010)) is listed as “approximately 85%”. For the same molecule, the “Time to cidality (≧3 log decrease)” value ([3]; 57147 (mecC), oritavancin ƒCmax 16 mg/L) was 5-10 min, the “Time to cidality (≧3 log decrease)” value ([3]; 57147 (mecC), oritavancin ƒCmin 2 mg/L) was 5-10 min and the “Time to cidality (≧3 log decrease)” value ([3]; 70611 (mecC), oritavancin ƒCmax 16 mg/L) was “≦5 min”. The “Time to cidality (≧3 log decrease)” value ([3]; 70611 (mecC), oritavancin ƒCmin 2 mg/L) was 5-10 min, the “Time to cidality (≧3 log decrease)” value ([3]; 73348 (mecC), oritavancin ƒCmax 16 mg/L) was 5-10 min and the “Time to cidality (≧3 log decrease)” value ([3]; 73348 (mecC), oritavancin ƒCmin 2 mg/L) was 5-10 min. For the same molecule, the “Time to cidality (≧3 log decrease)” value ([3]; 73415 (mecC), oritavancin ƒCmax 16 mg/L) was 5-10 min, the “Time to cidality (≧3 log decrease)” value ([3]; 73415 (mecC), oritavancin ƒCmin 2 mg/L) was 5-10 min and the “Time to cidality (≧3 log decrease)” value ([3]; 73617 (mecC), oritavancin ƒCmax 16 mg/L) was 5-10 min. The “Time to cidality (≧3 log decrease)” value ([3]; 73617 (mecC), oritavancin ƒCmin 2 mg/L) was 10-15 min, the “Time to cidality (≧3 log decrease)” value ([3]; 73829 (mecC), oritavancin ƒCmax 16 mg/L) was “≦5 min” and the “Time to cidality (≧3 log decrease)” value ([3]; 73829 (mecC), oritavancin ƒCmin 2 mg/L) was 5-10 min. For the same molecule, the “Time to cidality (≧3 log decrease)” value ([3]; 75814 (mecC), oritavancin ƒCmax 16 mg/L) was “≦5 min”, the “Time to cidality (≧3 log decrease)” value ([3]; 75814 (mecC), oritavancin ƒCmin 2 mg/L) was 5-10 min and the “Time to cidality (≧3 log decrease)” value ([3]; 76918 (mecC), oritavancin ƒCmax 16 mg/L) was 5-10 min. For the same molecule, the “Time to cidality (≧3 log decrease)” value ([3]; 76918 (mecC), oritavancin ƒCmin 2 mg/L) was 5-10 min, the “Time to cidality (≧3 log decrease)” value ([3]; 77431 (mecC), oritavancin ƒCmax 16 mg/L) was “≦5 min” and the “Time to cidality (≧3 log decrease)” value ([3]; 77431 (mecC), oritavancin ƒCmin 2 mg/L) was 5-10 min. For the same molecule, the “Time to cidality (≧3 log decrease)” value ([3]; 77601 (mecC), oritavancin ƒCmax 16 mg/L) was “≦5 min”, the “Time to cidality (≧3 log decrease)” value ([3]; 77601 (mecC), oritavancin ƒCmin 2 mg/L) was 5-10 min and the “Time to cidality (≧3 log decrease)” value ([3]; 77950 (mecC), oritavancin ƒCmax 16 mg/L) was “≦5 min”. The “Time to cidality (≧3 log decrease)” value ([3]; 77950 (mecC), oritavancin ƒCmin 2 mg/L) was 5-10 min, the “Time to cidality (≧3 log decrease)” value ([3]; 77964 (mecC), oritavancin ƒCmax 16 mg/L) was “≦5 min” and the “Time to cidality (≧3 log decrease)” value ([3]; 77964 (mecC), oritavancin ƒCmin 2 mg/L) was 5-10 min. For the same molecule, the “Time to cidality (≧3 log decrease)” value ([3]; 78085 (mecC), oritavancin ƒCmax 16 mg/L) was 5-10 min, the “Time to cidality (≧3 log decrease)” value ([3]; 78085 (mecC), oritavancin ƒCmin 2 mg/L) was 10-15 min and the “Time to cidality (≧3 log decrease)” value ([3]; 78651 (mecC), oritavancin ƒCmax 16 mg/L) was 5-10 min. For the same molecule, the “Time to cidality (≧3 log decrease)” value ([3]; 78651 (mecC), oritavancin ƒCmin 2 mg/L) was 10-15 min, the “Time to cidality (≧3 log decrease)” value ([3]; ATCC 29213 (MSSA), oritavancin ƒCmax 16 mg/L) was 5-10 min and the “Time to cidality (≧3 log decrease)” value ([3]; ATCC 29213 (MSSA), oritavancin ƒCmin 2 mg/L) was 10-15 min. The “Time to cidality (≧3 log decrease)” value ([3]; ATCC 33591 (mecA), oritavancin ƒCmax 16 mg/L) was 5-10 min, the “Time to cidality (≧3 log decrease)” value ([3]; ATCC 33591 (mecA), oritavancin ƒCmin 2 mg/L) was 10-15 min and the “Time to cidality (≧3 log decrease)” value ([3]; ATCC 43300 (mecA), oritavancin ƒCmax 16 mg/L) was 5-10 min. The “Time to cidality (≧3 log decrease)” value ([3]; ATCC 43300 (mecA), oritavancin ƒCmin 2 mg/L) was 5-10 min, the “Efficacy versus vancomycin for ECE and PTE endpoints” value [4] was “non-inferior to vancomycin” and the “FDA primary endpoint: Cessation of spread, absence of fever, no rescue antibiotics” value [4, 5] was 82.0%. For the same molecule, the “≧20% reduction of lesion area” value [4, 5] was 96.0%, the “FDA primary endpoint: Cessation of spread, absence of fever, no rescue antibiotics, number of patients” value [4, 6] was 82 and the “≧20% reduction of lesion area, number of patients” value [4, 6] was 96. For the same molecule, the “EMA primary endpoint: Investigator-assessed clinical cure” value ([4]; confirmed MRSA, Microbiological ITT, PTE) was 84.0%, the “EMA primary endpoint: Investigator-assessed clinical cure, number of patients” value ([4]; confirmed MRSA, Microbiological ITT, PTE, oritavancin n = 100, vancomycin n = 101) was 84 and the “FDA primary endpoint: Cessation of spread, absence of fever, no rescue antibiotics” value ([4]; mITT, ECE) was 80.1%. For the same molecule, the “≧20% reduction of lesion area” value ([4]; mITT, ECE) was 85.9%, the “FDA primary endpoint: Cessation of spread, absence of fever, no rescue antibiotics, number of patients” value [4, 7] was 403 and the “≧20% reduction of lesion area, number of patients” value [4, 7] was 432. The “% Difference (95% CI), FDA primary endpoint” value [4, 8] was −2.7 (−7.5, 2.0) %, the “% Difference (95% CI), ≧20% reduction of lesion area” value [4, 8] was 0.6 (−3.7, 5.0) % and the “EMA primary endpoint: Investigator-assessed clinical cure” value ([4]; mITT, PTE) was 82.7%. For the same molecule, the “EMA primary endpoint: Investigator-assessed clinical cure, number of patients” value ([4]; mITT, PTE, oritavancin n = 503, vancomycin n = 502) was 416 and the “% Difference (95% CI), investigator-assessed clinical cure” value ([4]; mITT, PTE, oritavancin vs vancomycin) was 2.2 (−2.6, 7.0) %.
